Experimental findings from patent US12599560B2, “Lipids and lipid nanoparticle formulations” (Longuide Biopharma Corporation, priority 2023, dated 2026) are described below.

Data set [1] can be described thus: Particle size and PDI by dynamic light scattering. It is filed as physicochemical. As for the experimental part: The 7.5 μL nucleic acid lipid nanoparticle solution (containing approximately 0.04 mg/mL mRNA) was taken and added with 200 μL ultrapure water, mixed by gentle blowing using a pipette tip, and the particle size of the nanopreparation was detected by dynamic lightscattering (DLS) using a Malvern Dynamic Light Scattering Instrument (Malvern Instruments Ltd., ZEN3700, UK). 27.5 μL nucleic acid lipid nanoparticle solution (containing about 0.04 mg/mL mRNA) was taken and added with 200 μL ultrapure water. A pipette tip was used to gently blow the sample and mix well. The particle size of the nanopreparation was detected by Malvern Dynamic Light Scattering Instrument (Malvern Instruments Ltd., ZEN3700, UK). After the detection, the sample was recovered to an EP tube, and 600 μL of ultrapure water was added, gently blown with a pipette tip, and the potential of the nanopreparation was measured by a Malvern particle size meter.

Another data set has as its system mice. In words: In vivo delivery of FLuc-mRNA lipid nanoparticle preparations in mice (IVIS imaging). Also on record: In vivo IVIS / In vivo IVIS (liver) / In vivo IVIS (spleen): unit not given here. As to the method:
7. In Vivo Delivery of the Nucleic Acid Lipid Nanoparticle Preparations in Mice After the preparation was completed, the preparation was injected intramuscularly (mice rectus femoris muscle of the thigh) or intravenously (mice tail vein), with approximately 75 μL per mouse, for a total of 3 mice. After a certain time of injection, in vivo imaging (PerkinElmer, IVIS Lumina III) was performed. 10-15 minutes before imaging, 200 μL of 15 mg/mL D-Luciferin working solution was injected intraperitoneally, and the imaging analysis was performed using an in vivo imager.

Setting [2] is: Table 2, IV, whole body scan, molar ratio DMG-PEG2000:DSPC:Chol:Lipid and N/P.
The mark [3] stands for this setting: Table 2, LNP formulation with mRNA.

`CCCCCCOCOCCCCCCOC(=O)C(O)CN1CCN(CCN(CC(O)C(=O)OCCCCCCOCOCCCCCC)CC(O)C(=O)OCCCCCCOCOCCCCCC)CC1` (centres unmarked) [Compound L0184]: the “Particle size (nm)” value in data set [1] (Table 2, LNP formulation with mRNA, molar ratio 1.09:8.66:30.25:60.00, N/P 50) was 128.20 ± 0.95 nm; in data set [1] (Table 2, LNP formulation with mRNA, molar ratio 1.40:11.15:38.95:48.50, N/P 50), 119.60 ± 0.40 nm. Besides, the PDI in data set [1] (Table 2, polydispersity value, molar ratio 1.09:8.66:30.25:60.00, N/P 50) is 0.09 ± 0.01; in data set [1] (Table 2, polydispersity value, molar ratio 1.40:11.15:38.95:48.50, N/P 50), 0.06 ± 0.00. The “In vivo IVIS” value in the data set on mice (Table 2, IM, whole body scan) is given as 4.88 × 10^6; with mice (setting [2]), 1.17 × 10^8.
Take `CCCCCCCCCCCCOC(=O)C(O)CN1CCN(CCN(CC(O)C(=O)OCCCCCCCCCCCC)CC(O)C(=O)OCCCCCCCCCCCC)CC1` (centres unmarked) [Compound L0183]: the “Particle size (nm)” value in data set [1] (Table 2, LNP formulation with mRNA, molar ratio 1.40:11.15:38.95:48.50, N/P 24) is reported as 75.73 ± 0.33 nm; in data set [1] (Table 2, LNP formulation with mRNA, molar ratio 1.63:12.99:45.38:40.00, N/P 24), 94.49 ± 1.06 nm. The PDI turned out to be 0.14 ± 0.01 in data set [1] (Table 2, polydispersity value, molar ratio 1.40:11.15:38.95:48.50, N/P 24) and 0.16 ± 0.01 in data set [1] (Table 2, polydispersity value, molar ratio 1.63:12.99:45.38:40.00, N/P 24). The “In vivo IVIS” value was 2.37 × 10^7 with mice (Table 2, IM, whole body scan) and 5.98 × 10^7 in the data set on mice (setting [2]).
Regarding `CCCCCCCCCCNC(=O)C(O)CN[C@H]1CC[C@@H](N(CC(O)C(=O)NCCCCCCCCCC)CC(O)C(=O)NCCCCCCCCCC)CC1` (some centres unmarked) [Compound L0217], the PDI in data set [1] (Table 4) came to 0.09 ± 0.02. Moreover, the “Particle size (nm)” value in data set [1] (Table 4) is reported as 87.05 ± 0.47 nm. Besides, the “In vivo IVIS” value in the data set on mice (Table 4, IM) is listed as 2.97 × 10^6; in the data set with mice (Table 4, IV), 2.87 × 10^7.
On to `CCCCCCCCCCCCOC(=O)C(O)CN[C@H]1CC[C@@H](N(CC(O)C(=O)OCCCCCCCCCCCC)CC(O)C(=O)OCCCCCCCCCCCC)CC1` (some centres unmarked) [Compound L0212], for which, in data set [1] (Table 4), the PDI stood at 0.18 ± 0.01 and the “Particle size (nm)” value is 95.87 ± 0.24 nm. In addition, the “In vivo IVIS” value with mice (Table 4, IM) is on record as 1.40 × 10^7. Also, the “In vivo IVIS” value with mice (Table 4, IV) is listed as 1.38 × 10^8.
`CCCCCCCCCCCCNC(=O)C(O)CN(CCCC(=O)NCCCN1CCN(CCCNC(=O)CCCN(CC(O)C(=O)NCCCCCCCCCCCC)CC(O)C(=O)NCCCCCCCCCCCC)CC1)CC(O)C(=O)NCCCCCCCCCCCC` (centres unmarked) [Compound L0195]: in data set [1] (setting [3]), the “Particle size (nm)” value worked out at 90.79 ± 0.65 nm. Further, the PDI in data set [1] (Table 2, polydispersity value) worked out at 0.17 ± 0.02. The “In vivo IVIS” value is reported as 6.81 × 10^5 in the data set with mice (Table 2, IM, whole body scan) and 4.54 × 10^5 in the data set with mice (setting [2]).
As to `CCCCCCC(CCCCCC)C(=O)OCCCCOC(=O)C(O)CN(CCCN1CCN(CCCN(CC(O)C(=O)OCCCCOC(=O)C(CCCCCC)CCCCCC)CC(O)C(=O)OCCCCOC(=O)C(CCCCCC)CCCCCC)CC1)CC(O)C(=O)OCCCCOC(=O)C(CCCCCC)CCCCCC` (centres unmarked) [Compound L0196], the “Particle size (nm)” value in data set [1] (setting [3]) is given as 89.18 ± 0.22 nm. The compound also showed a PDI in data set [1] (Table 2, polydispersity value) of 0.11 ± 0.01. Further, the “In vivo IVIS” value in the data set on mice (Table 2, IM, whole body scan) is reported as 1.82 × 10^8; in the data set on mice (setting [2]) it was 2.00 × 10^9. Further, in the data set with mice (certain formulations, Table 2), the “in vivo delivery efficiency as compared to the benchmark compound SM102” value is reported as “superior in vivo delivery efficiency”.
Consider `CCCC/C=C\CCOCOCCCCOC(=O)C(O)CN(CCCN1CCN(CCCN(CC(O)C(=O)OCCCCOCOCC/C=C\CCCC)CC(O)C(=O)OCCCCOCOCC/C=C\CCCC)CC1)CC(O)C(=O)OCCCCOCOCC/C=C\CCCC` (centres unmarked) [Compound L0226], for which the PDI in data set [1] (Table 4) was 0.09 ± 0.03. In data set [1] (Table 4), the “Particle size (nm)” value came to 115.53 ± 1.04 nm. Also, the “In vivo IVIS” value in the data set with mice (Table 4, IM) is listed as 1.41 × 10^8; in the data set on mice (Table 4, IV), 1.24 × 10^9.
The matching figures for `CCCCCCCCCCOC(=O)C(O)CN(Cc1ccc(CN(CC(O)C(=O)OCCCCCCCCCC)CC(O)C(=O)OCCCCCCCCCC)cc1)CC(O)C(=O)OCCCCCCCCCC` (centres unmarked) [Compound L0211]: 0.22 ± 0.00, 134.47 ± 2.72 nm, 1.37 × 10^5 and 1.36 × 10^5.
The matching figures for `CCCCCCOC(C)OCCCCCCOC(=O)C(O)CN1CCN(CCN(CC(O)C(=O)OCCCCCCOC(C)OCCCCCC)CC(O)C(=O)OCCCCCCOC(C)OCCCCCC)CC1` (centres unmarked) [Compound L0220]: 0.08 ± 0.02, 106.97 ± 0.21 nm, 1.32 × 10^6 and 1.82 × 10^8.
The matching figures for `CCCCCCCCCCNC(=O)C(O)CN(Cc1ccc(CN(CC(O)C(=O)NCCCCCCCCCC)CC(O)C(=O)NCCCCCCCCCC)cc1)CC(O)C(=O)NCCCCCCCCCC` (centres unmarked) [Compound L0215]: 0.11 ± 0.01, 119.27 ± 1.75 nm, 2.45 × 10^5 and 4.06 × 10^5.
Regarding `CCCCCCCCCCNC(=O)C(O)CN[C@H]1CC[C@H](N(CC(O)C(=O)NCCCCCCCCCC)CC(O)C(=O)NCCCCCCCCCC)CC1` (some centres unmarked) [Compound L0219], in data set [1] (Table 4), the PDI was found to be 0.09 ± 0.01 and the “Particle size (nm)” value came out at 102.47 ± 0.96 nm. Further, in the data set with mice (Table 4, IM), the “In vivo IVIS” value was 2.79 × 10^6. In addition, in the data set with mice (Table 4, IV), the “In vivo IVIS” value is reported as 8.48 × 10^7.
For `CCCCCCCCCCCCNC(=O)C(O)CN(CCC(=O)NCCCN1CCN(CCCNC(=O)CCN(CC(O)C(=O)NCCCCCCCCCCCC)CC(O)C(=O)NCCCCCCCCCCCC)CC1)CC(O)C(=O)NCCCCCCCCCCCC` (centres unmarked) [Compound L0194], the “Particle size (nm)” value in data set [1] (setting [3]) came to 109.10 ± 0.50 nm. Besides, the PDI in data set [1] (Table 2, polydispersity value) is reported as 0.13 ± 0.00. In addition, the “In vivo IVIS” value was 1.08 × 10^6 in the data set with mice (Table 2, IM, whole body scan) and 2.14 × 10^5 in the data set with mice (setting [2]).
With `CCCCCCCC/C=C\CCCCCCCCNC(=O)C(O)CN1CCN(CCN(CC(O)C(=O)NCCCCCCCC/C=C\CCCCCCCC)CC(O)C(=O)NCCCCCCCC/C=C\CCCCCCCC)CC1` (centres unmarked) [Compound L0223], the PDI in data set [1] (Table 4) is reported as 0.13 ± 0.03. In addition, in data set [1] (Table 4), the “Particle size (nm)” value amounted to 98.88 ± 1.32 nm. The “In vivo IVIS” value was 1.83 × 10^6 in the data set on mice (Table 4, IM) and 1.42 × 10^8 in the data set on mice (Table 4, IV).
As for `CCCCCCCCCCCCNC(=O)C(O)CN(CC(=O)NCCCN1CCN(CCCNC(=O)CN(CC(O)C(=O)NCCCCCCCCCCCC)CC(O)C(=O)NCCCCCCCCCCCC)CC1)CC(O)C(=O)NCCCCCCCCCCCC` (centres unmarked) [Compound L0193], in data set [1] (setting [3]), the “Particle size (nm)” value came out at 93.86 ± 0.59 nm. Besides, the PDI in data set [1] (Table 2, polydispersity value) came to 0.11 ± 0.02. Further, the “In vivo IVIS” value in the data set with mice (Table 2, IM, whole body scan) is on record as 2.43 × 10^5; in the data set on mice (setting [2]) it was 4.33 × 10^5.
Take `CCCCCCCCCCCCOC(=O)CCN(CCCN1CCN(CCCN(CCC(=O)OCCCCCCCCCCCC)CCC(=O)OCCCCCCCCCCCC)CC1)CCC(=O)OCCCCCCCCCCCC` [L0191-Control, reference compound]: the “delivery efficiency, times lower than the hydroxy compound (L0191 or L0199)” value in the data set on mice (IM administration) is ~20 times; with mice (IV administration) it was “about 420 times”. Further, the “In vivo IVIS” value with mice (Table 4, IM) is 1.07 × 10^6; in the data set on mice (Table 4, IV) it was 2.30 × 10^6.
Take `CCCCCCCCCCOC(=O)C(O)CN(CCN1CCN(CCN(CC(O)C(=O)OCCCCCCCCCC)CC(O)C(=O)OCCCCCCCCCC)CC1)CCN(CC(O)C(=O)OCCCCCCCCCC)CC(O)C(=O)OCCCCCCCCCC` (centres unmarked) [Compound L0210]: in data set [1] (Table 4), the PDI came to 0.15 ± 0.01. Further, the “Particle size (nm)” value was determined as 101.83 ± 0.21 nm in data set [1] (Table 4, molar ratio 1.00:16.00:48.00:35.00, N/P 30, IV formulation) and 94.89 ± 0.78 nm in data set [1] (Table 4, molar ratio 1.40:11.15:38.95:48.50, N/P 40, IM formulation). For the same compound, the “In vivo IVIS” value was 2.48 × 10^7 with mice (Table 4, IM) and 6.93 × 10^9 in the data set with mice (Table 4, IV).
`CCCCCCCCCCCCOC(=O)C(O)CN(Cc1ccc(CN(CC(O)C(=O)OCCCCCCCCCCCC)CC(O)C(=O)OCCCCCCCCCCCC)cc1)CC(O)C(=O)OCCCCCCCCCCCC` (centres unmarked) [Compound L0207]: in data set [1] (Table 4), the PDI is on record as 0.19 ± 0.00 and the “Particle size (nm)” value was found to be 172.13 ± 1.53 nm. Also, the “In vivo IVIS” value in the data set with mice (Table 4, IM) was 1.75 × 10^5. Besides, in the data set with mice (Table 4, IV), the “In vivo IVIS” value is recorded as 2.41 × 10^5.
